Results on four molecules are retold here after US20230151437A1, “USE OF PROTEIN ASSEMBLIES TO RECORD CELLULAR EVENTS” (President and Fellows of Harvard College, priority 2021, published 2023).

Assay [1] has as its system Tet-ON transcription system. Nature of the assay: Ticker tape recording of DOX activation of the Tet-ON system in HEK cells. It counts as cell-based. How it is done:
FIGS. 16A-16B show recordings of impulse response of protein expression following pulsed doxycycline (DOX) activation in HEK293T cells. […] Transitions to JF669 at t=0 and to JFX608 at t=8 h provided fiducial timestamps. Transcription was activated via addition of 2 μg/mL DOX at t=−0.5 h, followed by a thorough wash at t=0 h. FIG. 16B provides three representative examples showing the GFP intensity profiles on the protein ticker tapes. Top: representative images. Bottom: fluorescence line profiles. Scale bars: […].
As the first test of a physiological recording, iPAK4 assemblies were used to report on a transcriptional activator, the tetracycline mediated Tet-ON transcription system.^28 HEK cells were co-infected with lentivirus containing CMV::iPAK4 (60%), CMV::rTTA3 (30%), CMV::HT-iPAK4 (5%), and CMV::eGFP-iPAK4 (5%) to establish tetracycline-dependent eGFP-iPAK4 expression (FIG. 4A). After assemblies had nucleated (24 h after lentiviral infection), JF552 was added to label the initial nuclei, and JF669 was added at t=0. In different dishes, doxycycline (DOX, 2 μg/mL) was added at t=2, 4, or 6 h to activate expression of eGFP-iPAK4. Then JF552 was added again at t=8 h, and the assemblies were grown for another 8-14 h before fixation and imaging (FIG. 4B).

For assay [2], the system named is cFos promoter. Nature of the assay: Ticker tape recording of PMA activation of cFos in neurons. It counts as cell-based, rat. An excerpt:
In neurons co-expressing CMV::iPAK4 (90%) and cFos::eGFP-iPAK4 (10%), assemblies initially grew with little green fluorescence. […] Sequential additions of PMA to a single dish led to distinct bands of eGFP fluorescence, clearly resolved by sharp eGFP boundaries (FIG. 5G).
To measure timing of cFos activation relative to fiducial timestamps, CMV::iPAK4 (80%), CMV::HT-iPAK4 (10%), and cFos::eGFP-iPAK4 (10%; FIG. 5E) were co-expressed. The neurons were stained with JF552, and then switched to JF669 at t=0. PMA (1 μM) was then added at t=3, 6, or 9 h, and a second fiducial timestamp was introduced by switching back to JF552 at t=12 h. Assemblies were grown until t=22 h and then fixed and imaged (FIG. 5F).
Chemical activation of neuronal activity: The cFos promoter was activated by phorbol 12-myristate 13-acetate (PMA; Sigma Aldrich P8139). Briefly, the PMA was first diluted with DMSO to form a 1 mM stock solution. At the designated time, 2 μl PMA stock was directly added to each 14 mm glass-bottom culture dish, which contained 2 ml BPNM/SM1 medium. The dishes were then stirred gently to mix the PMA and medium. After PMA addition, the dishes were returned to an incubator at 37° C. with 5% CO2.

Assay [3] deals with T1, intracellular HT receptors (HT-NLS) (Rhodococcus rhodochrous, UniProt P0A3G2, A155T/A167V/A172T/A224E/C128F/C176G/D78G/E160K/E257K/H272N/K175M/K195N/L47V/L88M/N227D/P291S/S2A/S58T/T264A/Y273L/Y87F).
T1 construct: host or cells: HEK293T
T1 sequence (P0A3G2 other isoform, or with tags, fused parts or gaps with the stated changes): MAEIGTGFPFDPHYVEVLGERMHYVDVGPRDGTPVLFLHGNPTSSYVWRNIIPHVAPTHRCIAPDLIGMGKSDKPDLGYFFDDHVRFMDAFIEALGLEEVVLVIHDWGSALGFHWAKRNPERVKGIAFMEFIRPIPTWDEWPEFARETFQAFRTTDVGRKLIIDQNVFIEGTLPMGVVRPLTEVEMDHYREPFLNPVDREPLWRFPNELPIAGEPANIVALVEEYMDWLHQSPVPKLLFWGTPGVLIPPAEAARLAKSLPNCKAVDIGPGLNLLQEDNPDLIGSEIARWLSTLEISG
The assay can be described thus: Kinetics of HT dye labeling in HEK293T cells expressing HT-NLS. Conditions: for effective time constant of HT dye labeling: 1 μM dye, HEK293T cells; for first-order reaction rate constant of HT dye labeling: HEK293T cells expressing HT-NLS, 0.1 μM dye, combined membrane permeation and HT reaction. It is filed as cell-based. The procedure: FIGS. 13A-13C show kinetics of HT dye labeling and turnover in HEK293T cells. […] The sharpness of the dye transition was 7.5 min, as calculated by the width of the peak in the second derivative of fluorescence vs. position (purple). FIGS. 13B-13C show kinetics of HT dye reaction in HEK293T cells. HEK293T cells expressing a nucleus-targeted HT construct (HT-NLS, Addgene #82518) were incubated with 0.1 μM of the indicated dye (FIG. 3B) or 1 μM of the indicated dye (FIG. 3C), and nuclear fluorescence was monitored as a function of time. In FIG. 3B, HT-iPAK4 labeling experiments were performed with 10-fold higher dye concentrations (1 μM).
Dye additions appeared as upward-going kinks in the fluorescence profiles (FIGS. 12D, 13A), which were located as peaks in the second derivative of fluorescence vs. position. By dividing the transition zone widths (full-width at half-maximum of the peak in the second derivative) by the assembly-specific growth rates, a mean transition zone duration of 7.5 min was calculated (FIG. 13A). To determine whether the kinetics of HT dye labeling affected the widths of these transitions, the labeling of intracellular HT receptors was measured with several different HT dyes. These measurements probed the combined effects of membrane permeation and the HT reaction. The first-order reaction rate constants were 2.9 μM^−1 min^−1 (JF525), 0.13 μM^−1 min^−1 (JFX608), and 0.27 μM^−1 min^−1 (JF669) (FIG. 13B). […] The effective time constants at 1 μM dye were: 43 min (JF503), 3.5 min (JF525), 2.0 min (JF552), 12 min (JFX608), and 17 min (JF669) (FIGS. 13A and 13C). The precision of localizing a dye transition in an assembly is not equal to the labeling time constant, but rather the precision with which one can identify the onset of the labeling reaction. For all the JF dyes, this time was much less than 10 min.
Measurements of HT dye labeling kinetics in HEK293T cells: HEK293T cells were transfected with an inducible nuclear-localized HT protein (HT-NLS, Addgene #82518). Doxycycline (DOX, 2 μg/ml) was added 12 h after transfection to induce the expression of HT-NLS. 24 h after transfection, cells were incubated with 0.1 μM of the indicated dye, and nuclear fluorescence was monitored via wide-field epifluorescence microscopy as a function of time.

For `C[C@H]1c2cccc(O)c2C(=O)C2=C(O)[C@]3(O)C(=O)C(C(N)=O)=C(O)[C@@H](N(C)C)[C@@H]3[C@@H](O)[C@@H]21` [DOX, doxycycline], in assay [1] (30-minute pulse of DOX), the “duration of rise of eGFP-iPAK4 expression” value is “approximately 8 h” and the “window of protein expression” value was roughly 14 h. The “offset between DOX addition and start of the green stripe (y-intercept of linear fit)” value in assay [1] (DOX 2 μg/mL at t=2, 4 or 6 h, HEK cells, N=191 assemblies) amounted to 1.2 h.

`CCCCCCCCCCCCCC(=O)O[C@@H]1[C@@H](C)[C@@]2(O)[C@@H](C=C(CO)C[C@]3(O)C(=O)C(C)=C[C@@H]23)[C@@H]2C(C)(C)[C@]12OC(C)=O` [PMA, phorbol 12-myristate 13-acetate]: the “delay of eGFP onset relative to PMA addition” value in assay [2] (PMA 1 μM at t=3, 6 or 9 h, neurons, extrapolated fit) was 53 min. Moreover, the “effect on cFos::eGFP-iPAK4 expression” value in assay [2] (PMA 1 μM, neurons co-expressing CMV::iPAK4 and cFos::eGFP-iPAK4) is on record as “bands of bright green fluorescence”. In addition, the “y-intercept of linear fit of eGFP onset” value in assay [2] (PMA at t=3, 6 or 9 h, neurons) is “ca. 1.0 h”.

Regarding JF525 [reference compound], in assay [3], the “effective time constant of HT dye labeling” value was 3.5 min and the “first-order reaction rate constant of HT dye labeling” value worked out at 48300 M⁻¹ s⁻¹.

JFX608-HaloTag ligand: in assay [3], the “effective time constant of HT dye labeling” value stood at 12 min and the “first-order reaction rate constant of HT dye labeling” value turned out to be 2170 M⁻¹ s⁻¹.
